Results published in US10624948B2, “Use of cell-permeable peptide inhibitors of the JNK signal transduction pathway for the treatment of various diseases” (Xigen Inflammation Ltd., priority 2013, dated 2020).

Key:
[1] = test system: Brown Norway rats, STZ-induced diabetic retinopathy; experiment: Diabetic retinopathy prevention study in STZ treated rat (IVT); assay type: in vivo
Description: The objective of this study was to determine the ability of XG-102 to prevent diabetic retinopathy when administered by intravitreal injections to streptozotocin (STZ)-treated (hyperglycemic) rats.
All animals from Groups 2, 3, 4 received a 55 mg/kg intravenous (IV) dose of STZ on Day −7.
Test items or reference item were administered by intravitreal injection to the left and right eyes of each animal on Days 1, 8 and 15 as indicated in the Experimental Design table. The animals were anesthetized (isoflurane) for the dose administration, which was performed by a board-certified veterinary ophthalmologist. Topical antibiotics (gentamicin ophthalmic solution) were applied to both eyes twice on the day before treatment, following the injection and at least once on the day following the injection. Prior to dosing, mydriatic drops (1% tropicamide and/or 2.5% phenylephrine) were applied to each eye (further applications were performed when considered appropriate by the veterinary ophthalmologist). During dosing, animals were maintained under anesthesia with isoflurane/oxygen gas. The conjunctivae were flushed with 0.9% Sodium Chloride for Injection USP. A 10 μl Hamilton syringe with 32-gauge, ½-inch needle was used for each intravitreal injection (one syringe/group/treatment). The dose volume was 5 μL/eye. Both eyes were examined by slit-lamp biomicroscopy and/or indirect ophthalmoscopy immediately following each treatment to document any abnormalities (especially to the lens, vitreous and retina) caused by the administration procedure. […]
The in-life procedures, observations, and measurements listed below were performed for study animals. […] Food consumption was quantitatively measured weekly starting during the last week of the pretreatment period. […] Intraocular pressure was measured following each ophthalmology examination, once prestudy and on Day 22, using a TonoVet™ rebound tonometer. The pre-treatment tonometry readings were performed at the same times as anticipated for the final measurements to reduce diurnal variability. […]

[2] = test system: HCT 116 human colon tumor; experiment: Orthotopic HCT 116 human colon tumors in SCID mice; assay type: in vivo
Description: The objective of this study was to determine the effect of XG-102 on the growth of HCT 116 human colon tumor orthotopically xenografted in SCID mice.
For XG-102 administration the required amount of XG-102 was dissolved in the vehicle. The formulation was prepared according to the procedure detailed below. Concentrations were calculated and expressed taking into account test item purity and peptide content (multiplier coefficient was 74.6%). […] Diluted solutions were maintained on ice until use. Unused material was discarded. XG-102 was injected once daily at 0.1 and 1 mg/kg/inj. for a total of fourteen consecutive administrations (Q1D×14). The routes of substance administrations were: injected subcutaneously (SC) at 5 ml/kg/inj., administered per os (PO) to mice by oral gavage via a canula at 5 ml/kg/adm. The injection and administration volumes were adapted, according to the daily individual body weight of mice.
Twenty four to Forty-eight hours before tumor induction, 5 SCID mice were irradiated with a γ-source (1.8 Gy, Co^60, INRA, Dijon, France). Ten millions (10^7) HCT 116 cells suspended in 200 μl of RPMI medium were subcutaneously injected in the right flank of the 5 female SCJD mice. When tumors reached 1000-2000 mm^3, mice were sacrificed. […]
Mice were sacrificed at D26. […] Invasion of liver by tumor nodules was evaluated macroscopically. […]

CC(C)C[C@@H](NC(=O)[C@@H](Cc1ccccc1)NC(=O)[C@H]1CCCN1C(=O)[C@@H](CCC(N)=O)NC(=O)[C@H](NC(=O)[C@H]1CCCN1C(=O)[C@@H](CCCNC(=N)N)NC(=O)[C@@H](CO)NC(=O)[C@@H](CCC(N)=O)NC(=O)[C@H](N)CC(=O)O)C(C)C)C(=O)N[C@H](CC(N)=O)C(=O)N[C@H](CC(C)C)C(=O)N[C@@H](C(=O)N[C@@H](C(=O)N1CCC[C@@H]1C(=O)N[C@H](CCCNC(=N)N)C(=O)N[C@H](CCCCN)C(=O)N1CCC[C@@H]1C(=O)N[C@H](CCCNC(=N)N)C(=O)N1CCC[C@@H]1C(=O)N1CCC[C@@H]1C(=O)N[C@H](CCCNC(=N)N)C(=O)N[C@H](CCCNC(=N)N)C(=O)N[C@H](CCCNC(=N)N)C(=O)N[C@H](CCC(N)=O)C(=O)N[C@H](CCCNC(=N)N)C(=O)N[C@H](CCCNC(=N)N)C(=O)N[C@H](CCCCN)C(=O)N[C@H](CCCCN)C(=O)N[C@H](CCCNC(=N)N)C(=O)NCC(=O)O)[C@H](C)O)[C@H](C)O [XG-102]
mortality ([1]; IVT Days 1, 8, 15): no XG-102-related deaths | ERG wave amplitude, overall ([1]; rat, in vivo): tendency for XG-102 to reverse the decrease of the wave amplitude | ERG latencies ([1]; ≤2 μg/eye): comparable and remained within the control and/or pretreatment variation | MBWC at D−2 ([2]; PO 0.1 mg/kg/adm.): 7.1±4.6% | lethality after surgery vs vehicle treated group ([2]; mouse, in vivo): did not significantly modify lethality compared to vehicle treated group
